In patent US6596290B2 (priority 2001, dated 2003):
“And” between values parts separate entries of the source, which are not always exact repeats. Identical values can stand only once. Like-named read-outs stand apart in the source and are kept apart here.

Columns and labels:
[1] = system: S. aureus (MN8); format: cell-based, Staphylococcus aureus
[2] = system: TSST-1; format: cell-based, Staphylococcus aureus

## CC1CCC(C(C)C)C(O)C1 (centres unmarked) [Menthol]
[1]
  effect on the growth of S. aureus cells: minimal, if any, effect
[1]; 0.1% test compound (in methanol), S. aureus MN8, 24 h, 600 nm
  Optical Density: 0.621
[1]; 24 h
  CFU/mL: 6.3E + 08 CFU/mL
[2]; 24 h
  ng TSST-1 per OD Unit: 33 ng TSST-1 per OD Unit

## myreth-3-myristate [Cetiol]
[1]
  CFU/mL × 10^8: 4.2 and 5.9 and 5.0
[2]
  ng TSST-1 per CFU: 371 ng TSST-1 per CFU and 196 ng TSST-1 per CFU and 200 ng TSST-1 per CFU
  ng TSST-1 per mL: 1556 ng TSST-1 per mL and 1147 ng TSST-1 per mL and 989 ng TSST-1 per mL

## CC(=O)/C=C/C1=C(C)CCCC1(C)C [Beta-ionone]
[1]
  CFU/mL: 1.8E + 08 CFU/mL
  Optical Density: 0.688
[2]
  Reduction of Toxin %: 100%
  ng TSST-1 per OD Unit: none

## C=CC(C)(O)CCC=C(C)C (centres unmarked) [Linalool]
[1]
  CFU/mL: 2.0E + 09 CFU/mL
[1]; 0.01% test compound, Table 3
  Optical Density: 0.600
[2]
  Reduction of Toxin %: 88%
  ng TSST-1 per OD Unit: 421 ng TSST-1 per OD Unit

## CC1(O)CCC(C(C)(C)O)CC1 (centres unmarked) [p-menthane-1,8-diol]
[1]
  CFU/mL: 2.0E + 09 CFU/mL
[1]; 0.7% test compound, Table 3
  Optical Density: 0.620
[2]
  Reduction of Toxin %: 78%
  ng TSST-1 per OD Unit: 792 ng TSST-1 per OD Unit

## CC(C)=CCC/C(C)=C/CO [Geraniol]
[1]
  CFU/mL: 3.2E + 08 CFU/mL
[1]; 0.01% test compound, Table 3
  Optical Density: 0.0569
[2]
  Reduction of Toxin %: 99%
  ng TSST-1 per OD Unit: 26 ng TSST-1 per OD Unit
